This note sets out measurements from PMC4498814, “Genetic Evidence for Function of the bHLH-PAS Protein Gce/Met As a Juvenile Hormone Receptor” (PLoS Genetics, 2015).

Like-named read-outs stand apart in the source and are kept apart here.

For test [1], the target named is T1, Gce (germ cell-expressed) (Drosophila melanogaster, UniProt Q9VXW7).
T1 construct: amino acids 1–689, translated in vitro
T1 sequence (Q9VXW7 269-959): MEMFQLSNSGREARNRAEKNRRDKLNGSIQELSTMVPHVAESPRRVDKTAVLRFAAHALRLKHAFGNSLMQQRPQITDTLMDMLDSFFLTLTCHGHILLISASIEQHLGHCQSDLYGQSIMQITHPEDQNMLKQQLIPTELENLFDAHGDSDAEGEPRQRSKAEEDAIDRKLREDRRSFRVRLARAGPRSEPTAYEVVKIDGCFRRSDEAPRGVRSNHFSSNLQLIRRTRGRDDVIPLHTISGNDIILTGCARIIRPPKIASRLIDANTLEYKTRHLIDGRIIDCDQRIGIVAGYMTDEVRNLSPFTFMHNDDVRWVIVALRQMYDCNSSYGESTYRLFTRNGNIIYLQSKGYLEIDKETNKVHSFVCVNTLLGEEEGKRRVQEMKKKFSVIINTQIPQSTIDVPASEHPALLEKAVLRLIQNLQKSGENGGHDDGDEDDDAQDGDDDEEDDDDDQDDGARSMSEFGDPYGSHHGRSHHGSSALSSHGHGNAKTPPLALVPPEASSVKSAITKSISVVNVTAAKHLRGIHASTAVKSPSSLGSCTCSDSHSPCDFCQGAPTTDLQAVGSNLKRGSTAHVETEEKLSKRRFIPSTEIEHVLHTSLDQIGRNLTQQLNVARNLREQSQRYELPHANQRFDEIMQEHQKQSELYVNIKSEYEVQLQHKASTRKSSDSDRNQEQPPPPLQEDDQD
The test is described as follows: [3H]JH III radioligand saturation binding, dextran-coated charcoal assay.

The target in test [2] is T2, Met (Methoprene-tolerant) (Drosophila melanogaster, UniProt Q9VYW2).
T2 construct: amino acids 1–716, FLAG-tagged, expressed in S2 cells
T2 sequence (Q9VYW2 1-716): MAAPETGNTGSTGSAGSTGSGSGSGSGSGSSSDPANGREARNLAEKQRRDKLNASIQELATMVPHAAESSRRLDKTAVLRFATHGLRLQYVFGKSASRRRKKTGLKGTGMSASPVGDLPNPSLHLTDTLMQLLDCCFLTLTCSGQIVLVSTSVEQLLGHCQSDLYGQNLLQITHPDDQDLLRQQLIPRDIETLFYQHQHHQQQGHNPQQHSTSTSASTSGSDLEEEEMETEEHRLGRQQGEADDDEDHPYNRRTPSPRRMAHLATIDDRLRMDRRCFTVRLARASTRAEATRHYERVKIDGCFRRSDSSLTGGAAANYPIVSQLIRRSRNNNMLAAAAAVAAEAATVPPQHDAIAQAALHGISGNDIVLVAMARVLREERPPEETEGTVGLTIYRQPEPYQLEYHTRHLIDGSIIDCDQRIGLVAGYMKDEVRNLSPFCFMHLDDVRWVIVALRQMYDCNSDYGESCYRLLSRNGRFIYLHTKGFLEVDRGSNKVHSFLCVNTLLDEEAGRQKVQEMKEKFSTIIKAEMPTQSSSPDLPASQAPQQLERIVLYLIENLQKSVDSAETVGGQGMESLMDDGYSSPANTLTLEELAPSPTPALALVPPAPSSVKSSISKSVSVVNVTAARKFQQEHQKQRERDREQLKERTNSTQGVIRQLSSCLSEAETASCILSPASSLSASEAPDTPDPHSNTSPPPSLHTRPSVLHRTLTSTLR
In words: JHRE-luc reporter in S2 cells with endogenous Met and Gce depleted; pocket mutants inactive. It is filed as cell-based.

Test [3] has as its target T1, Gce (germ cell-expressed). The test is described as follows: competition radioligand binding against [3H]JH III, dextran-coated charcoal assay.

In the case of `COC(=O)/C=C(\C)CC/C=C(\C)CCC1OC1(C)C` (racemic) [JH III], the Kd in test [1] was found to be 19.3 ± 4.5 nM. In addition, the JHRE-luc reporter activity entry in test [2] is “Like Gce, Met but not its mutated versions, mediated induction of JHRE-luc by JH III (Fig 3C)”.

In test [3], `COC(C)(C)CCC[C@H](C)C/C=C/C(C)=C/C(=O)OC(C)C` (racemic) [methoprene] returned an inhibitory constant (Ki) of 45.8 ± 28.9 nM.

On to `CC(C)=CCC/C(C)=C/CC/C(C)=C/CO` [farnesol], for which the inhibition constant (Ki) in test [3] (read-out: Ki) is 8100 ± 2400 nM.

Take `COC(=O)/C=C(\C)CC/C=C(\C)CCC=C(C)C` [methyl farnesoate]: in test [3] (read-out: Ki), the Ki turned out to be 87.9 ± 22.2 nM.

In the case of `CC(COc1ccc(Oc2ccccc2)cc1)Oc1ccccn1` (stereo not drawn) [pyriproxyfen], the Ki in test [3] turned out to be 5.7 ± 2.8 nM.
